Measured values taken from patent publication US20170190671A1, “BIS(ARYL)CATECHOL DERIVATIVES AS HERBICIDES” (E I DU PONT DE NEMOURS AND COMPANY, priority 2014, published 2017).

Assays:
Assay type in all cases: in vivo
[1] = test system: barnyardgrass (Echinochloa crus-galli); test: Test C preemergence; conditions: Echinochloa crus-galli, pre-emergence, preemergence, scale 0 to 100, read-out: Plant response rating, Barnyardgrass
How it was run: (§1)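 Steps: plant seeds in loam-sand soil and treat preemergence, or grow plants in peat-based medium to 2-18 cm and spray; compound formulated in non-phytotoxic solvent/surfactant; hold in greenhouse 13-15 days; score visually versus controls from 0 (no effect) to 100 (complete control).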

[2] = test system: galium (catchweed bedstraw, Galium aparine); test: Test C preemergence; conditions: Galium, pre-emergence, 336 h, preemergence, scale 0 to 100, read-out: Plant response rating, Galium
How it was run: as §1

[3] = test system: johnsongrass (Sorghum halepense); test: Test C preemergence; conditions: Sorghum halepense, pre-emergence, 336 h, preemergence, scale 0 to 100, read-out: Plant response rating, Johnsongrass
How it was run: as §1

[4] = test system: Italian ryegrass (Lolium multiflorum); test: Test C postemergence; conditions: Lolium multiflorum, post-emergence, 336 h, Postemergence, scale 0 to 100, read-out: Plant response rating, Ryegrass, Italian
[5] = test system: barnyardgrass (Echinochloa crus-galli); test: Test C postemergence; conditions: Echinochloa crus-galli, post-emergence, Postemergence, scale 0 to 100, read-out: Plant response rating, Barnyardgrass
[6] = test system: blackgrass (Alopecurus myosuroides); test: Test C postemergence; conditions: Alopecurus myosuroides, post-emergence, 336 h, Postemergence, scale 0 to 100, read-out: Plant response rating, Blackgrass
[7] = test system: chickweed (common chickweed, Stellaria media); test: Test C postemergence; conditions: Stellaria media, post-emergence, Postemergence, scale 0 to 100, read-out: Plant response rating, Chickweed
corn (Zea mays) = test: Test C postemergence; conditions: Zea mays, post-emergence, 336 h, Postemergence, scale 0 to 100
[8] = test system: galium (catchweed bedstraw, Galium aparine); test: Test C postemergence; conditions: Galium, post-emergence, 336 h, Postemergence, scale 0 to 100, read-out: Plant response rating, Galium
[9] = test system: giant foxtail (Setaria faberii); test: Test C postemergence; conditions: Setaria faberi, post-emergence, 336 h, Postemergence, scale 0 to 100, read-out: Plant response rating, Foxtail, Giant
[10] = test system: johnsongrass (Sorghum halepense); test: Test C postemergence; conditions: Sorghum halepense, post-emergence, 336 h, Postemergence, scale 0 to 100, read-out: Plant response rating, Johnsongrass
[11] = test system: lambsquarters (Chenopodium album); test: Test C postemergence; conditions: Chenopodium album, post-emergence, 336 h, Postemergence, scale 0 to 100, read-out: Plant response rating, Lambsquarters
[12] = test system: large (Lg) crabgrass (Digitaria sanguinalis); test: Test C postemergence; conditions: Digitaria sanguinalis, post-emergence, 336 h, Postemergence, scale 0 to 100, read-out: Plant response rating, Crabgrass, Large
[13] = test system: morningglory (Ipomoea coccinea); test: Test C postemergence; conditions: Ipomoea, post-emergence, 336 h, Postemergence, scale 0 to 100, read-out: Plant response rating, Morningglory
[14] = test system: oilseed rape (Brassica napus); test: Test C postemergence; conditions: Brassica napus, post-emergence, Postemergence, scale 0 to 100, read-out: Plant response rating, Oilseed Rape
[15] = test system: ragweed (common ragweed, Ambrosia elatior); test: Test C postemergence; conditions: Ambrosia artemisiifolia, post-emergence, 336 h, Postemergence, scale 0 to 100, read-out: Plant response rating, Ragweed
soybean (Glycine max) = test: Test C postemergence; conditions: Glycine max, post-emergence, Postemergence, scale 0 to 100, read-out: Plant response rating, Soybean
[16] = test system: velvetleaf (Abutilon theophrasti); test: Test C postemergence; conditions: Abutilon theophrasti, post-emergence, Postemergence, scale 0 to 100, read-out: Plant response rating, Velvetleaf
[17] = test system: waterhemp (common waterhemp, Amaranthus rudis); test: Test C postemergence; conditions: Amaranthus tuberculatus, post-emergence, Postemergence, scale 0 to 100, read-out: Plant response rating, Waterhemp
wild oat (Avena fatua) = test: Test C postemergence; conditions: Avena fatua, post-emergence, Postemergence, scale 0 to 100, read-out: Plant response rating, Oat, Wild
[18] = test system: winter wheat (Triticum aestivum); test: Test C postemergence; conditions: Triticum aestivum, post-emergence, 336 h, Postemergence, scale 0 to 100, read-out: Plant response rating, Wheat
[19] = test system: yellow nutsedge (Cyperus esculentus); test: Test C postemergence; conditions: Cyperus, post-emergence, 336 h, Postemergence, scale 0 to 100, read-out: Plant response rating, Nutsedge, Yellow

Structure (SMILES): Fc1cnc(Oc2c(Br)cccc2Oc2ncc(Cl)cn2)nc1 [Compound 22]
- pest or weed control at 31 g/ha ([1]; 31 g ai/ha): 60%
- pest or weed control at 62 g/ha ([1]; 62 g ai/ha): 95%
- pest or weed control at 125 g/ha ([1]; 125 g ai/ha): 100%
- pest or weed control at 250 g/ha ([1]; 250 g ai/ha): 100%
- pest or weed control at 31 g/ha ([2]; 31 g ai/ha): 98%
- pest or weed control at 62 g/ha ([2]; 62 g ai/ha): 100%
- pest or weed control at 125 g/ha ([2]; 125 g ai/ha): 100%
- pest or weed control at 31 g/ha ([3]; 31 g ai/ha): 10%
- pest or weed control at 62 g/ha ([3]; 62 g ai/ha): 30%
- pest or weed control at 125 g/ha ([3]; 125 g ai/ha): 70%
- pest or weed control at 31 g/ha ([4]; 31 g ai/ha): 0%
- pest or weed control at 62 g/ha ([4]; 62 g ai/ha): 0%
- pest or weed control at 125 g/ha ([4]; 125 g ai/ha): 5%
- pest or weed control at 250 g/ha ([4]; 250 g ai/ha): 5%
- pest or weed control at 31 g/ha ([5]; 31 g ai/ha): 5%
- pest or weed control at 62 g/ha ([5]; 62 g ai/ha): 5%
- pest or weed control at 125 g/ha ([5]; 125 g ai/ha): 15%
- pest or weed control at 250 g/ha ([5]; 250 g ai/ha): 10%
- pest or weed control at 31 g/ha ([6]; 31 g ai/ha): 5%
- pest or weed control at 62 g/ha ([6]; 62 g ai/ha): 5%
- pest or weed control at 125 g/ha ([6]; 125 g ai/ha): 5%
- pest or weed control at 250 g/ha ([6]; 250 g ai/ha): 10%
- pest or weed control at 31 g/ha ([7]; 31 g ai/ha): 50%
- pest or weed control at 62 g/ha ([7]; 62 g ai/ha): 50%
- pest or weed control at 125 g/ha ([7]; 125 g ai/ha): 55%
- pest or weed control at 250 g/ha ([7]; 250 g ai/ha): 80%
- Corn plant response rating (crop injury, 0 = no effect, 100 = complete kill) at 31 g/ha (corn (Zea mays); 31 g ai/ha): 5%
- Corn plant response rating (crop injury, 0 = no effect, 100 = complete kill) at 62 g/ha (corn (Zea mays); 62 g ai/ha): 10%
- Corn plant response rating (crop injury, 0 = no effect, 100 = complete kill) at 125 g/ha (corn (Zea mays); 125 g ai/ha): 10%
- Corn plant response rating (crop injury, 0 = no effect, 100 = complete kill) at 250 g/ha (corn (Zea mays); 250 g ai/ha): 10%
- pest or weed control at 31 g/ha ([8]; 31 g ai/ha): 70%
- pest or weed control at 62 g/ha ([8]; 62 g ai/ha): 90%
- pest or weed control at 125 g/ha ([8]; 125 g ai/ha): 90%
- pest or weed control at 250 g/ha ([8]; 250 g ai/ha): 95%
- pest or weed control at 31 g/ha ([9]; 31 g ai/ha): 5%
- pest or weed control at 62 g/ha ([9]; 62 g ai/ha): 5%
- pest or weed control at 125 g/ha ([9]; 125 g ai/ha): 10%
- pest or weed control at 250 g/ha ([9]; 250 g ai/ha): 20%
- pest or weed control at 31 g/ha ([10]; 31 g ai/ha): 0%
- pest or weed control at 62 g/ha ([10]; 62 g ai/ha): 0%
- pest or weed control at 125 g/ha ([10]; 125 g ai/ha): 5%
- pest or weed control at 250 g/ha ([10]; 250 g ai/ha): 5%
- pest or weed control at 31 g/ha ([11]; 31 g ai/ha): 70%
- pest or weed control at 62 g/ha ([11]; 62 g ai/ha): 75%
- pest or weed control at 125 g/ha ([11]; 125 g ai/ha): 95%
- pest or weed control at 250 g/ha ([11]; 250 g ai/ha): 98%
- pest or weed control at 31 g/ha ([12]; 31 g ai/ha): 5%
- pest or weed control at 62 g/ha ([12]; 62 g ai/ha): 15%
- pest or weed control at 125 g/ha ([12]; 125 g ai/ha): 25%
- pest or weed control at 250 g/ha ([12]; 250 g ai/ha): 20%
- pest or weed control at 31 g/ha ([13]; 31 g ai/ha): 80%
- pest or weed control at 62 g/ha ([13]; 62 g ai/ha): 70%
- pest or weed control at 125 g/ha ([13]; 125 g ai/ha): 85%
- pest or weed control at 250 g/ha ([13]; 250 g ai/ha): 80%
- plant injury at 31 g/ha ([14]; 31 g ai/ha): 40%
- plant injury at 62 g/ha ([14]; 62 g ai/ha): 40%
- plant injury at 125 g/ha ([14]; 125 g ai/ha): 60%
- plant injury at 250 g/ha ([14]; 250 g ai/ha): 35%
- pest or weed control at 31 g/ha ([15]; 31 g ai/ha): 30%
- pest or weed control at 62 g/ha ([15]; 62 g ai/ha): 35%
- pest or weed control at 125 g/ha ([15]; 125 g ai/ha): 90%
- pest or weed control at 250 g/ha ([15]; 250 g ai/ha): 90%
- plant injury at 31 g/ha (soybean (Glycine max); 31 g ai/ha): 40%
- plant injury at 62 g/ha (soybean (Glycine max); 62 g ai/ha): 75%
- plant injury at 125 g/ha (soybean (Glycine max); 125 g ai/ha): 90%
- plant injury at 250 g/ha (soybean (Glycine max); 250 g ai/ha): 0%
- pest or weed control at 31 g/ha ([16]; 31 g ai/ha): 30%
- pest or weed control at 62 g/ha ([16]; 62 g ai/ha): 65%
- pest or weed control at 125 g/ha ([16]; 125 g ai/ha): 70%
- pest or weed control at 250 g/ha ([16]; 250 g ai/ha): 70%
- pest or weed control at 31 g/ha ([17]; 31 g ai/ha): 70%
- pest or weed control at 62 g/ha ([17]; 62 g ai/ha): 85%
- pest or weed control at 125 g/ha ([17]; 125 g ai/ha): 95%
- pest or weed control at 250 g/ha ([17]; 250 g ai/ha): 95%
- pest or weed control at 31 g/ha (wild oat (Avena fatua); 31 g ai/ha): 0%
- pest or weed control at 62 g/ha (wild oat (Avena fatua); 62 g ai/ha): 5%
- pest or weed control at 125 g/ha (wild oat (Avena fatua); 125 g ai/ha): 10%
- pest or weed control at 250 g/ha (wild oat (Avena fatua); 250 g ai/ha): 15%
- plant injury at 31 g/ha ([18]; 31 g ai/ha): 0%
- plant injury at 62 g/ha ([18]; 62 g ai/ha): 0%
- plant injury at 125 g/ha ([18]; 125 g ai/ha): 0%
- plant injury at 250 g/ha ([18]; 250 g ai/ha): 0%
- pest or weed control at 31 g/ha ([19]; 31 g ai/ha): 5%
- pest or weed control at 62 g/ha ([19]; 62 g ai/ha): 5%
- pest or weed control at 125 g/ha ([19]; 125 g ai/ha): 10%
- pest or weed control at 250 g/ha ([19]; 250 g ai/ha): 10%
